From a compilation of properties of binary mixtures (doi:10.1021/je300622r)

Assay: xn = mol fraction of the nth substance listed
Settings: 101 kPa

CCOS(=O)(=O)[O-].CC[n+]1ccn(C)c1 + O
viscosity [mPa·s]
Settings | 283.15 K | 293.15 K | 303.15 K | 313.15 K | 323.15 K | 333.15 K | 343.15 K
x2 = 0.0023 | 242.3 | – | 81 | 52.62 | 36.24 | 26.16 | –
x2 = 0.1225 | 171.3 | – | 62.11 | 41.51 | 29.17 | 21.46 | 16.37
x2 = 0.1966 | – | 81.3 | 52.09 | 35.42 | 25.3 | 18.81 | –
x2 = 0.427 | 62.49 | 40.03 | 27.26 | 19.53 | – | 11.24 | –
x2 = 0.6124 | – | 21.82 | 15.38 | 11.33 | 8.663 | 6.824 | 5.518
x2 = 0.798 | 14.52 | 10.01 | 7.24 | 5.453 | 4.246 | 3.402 | 2.791
x2 = 0.8983 | 6.801 | 4.853 | 3.618 | 2.793 | 2.221 | 1.813 | 1.518

CC[n+]1ccn(C)c1.COS(=O)(=O)[O-] + O
viscosity [mPa·s]
Settings | 278.15 K | 288.15 K | 298.15 K | 308.15 K | 318.15 K | 328.15 K | 338.15 K
x2 = 0.0023 | 246.3 | – | – | 54.77 | – | – | 20.53
x2 = 0.0887 | 226 | 129.2 | – | 53.07 | 37.01 | 26.98 | 20.42
x2 = 0.2235 | 164.6 | 97.7 | 62.41 | – | 30.1 | 22.43 | 17.93
x2 = 0.4163 | 81.88 | 51.53 | 34.54 | – | 17.94 | 13.72 | –
x2 = 0.6106 | 36.75 | 24.28 | 16.97 | 12.4 | 9.404 | 7.362 | –
x2 = 0.7999 | 14.47 | 9.971 | 7.21 | 5.427 | 4.222 | 3.378 | 2.767
x2 = 0.8948 | 6.791 | – | 3.635 | – | 2.247 | 1.836 | 1.534
